The target in this test is T1, EBP (Homo sapiens, UniProt Q15125).
T1 construct: HEK293T cells were utilized as the source of EBP enzyme; endogenous in cells; host or cells: HEK293T
Nature of the test: EBP Functional Assay (EBP immunoaffinity LC-MS assay). The test is classed as biochemical. Conditions: EBP enzyme from HEK293T cells; 30 min with inhibitor, then zymosterol-d5 at 37° C. for 4 h; percent conversion by LC-APCI MRM MS. How it is done: The EBP immunoaffinity (IA) LC-MS assay measures the potency of small molecule inhibitors of EBP by quantifying their concentration-dependent changes in the enzyme's substrate and product using liquid chromatography atmospheric pressure chemical ionization multiple reaction monitoring mass spectrometry (LC-APCI MRM MS). HEK293T cells were utilized as the source of EBP enzyme. The enzyme was incubated with the small molecule inhibitors at variable concentrations for 30 min. Deuterated form of EBP substrate, zymosterol-d5 (Avanti Polar Lipids, Cat #700068P-1 mg), was then added and the plate was incubated at 37° C. for 4 h. Finally, the sterol isomers were extracted and injected to LC-APCI MRM MS. MRM transition used for the quantification for both zymosterol and […] (substrate and product of EBP enzymatic reaction, respectively) is 372.3-203.2, CE 30 and DP 80 in positive ion mode. Percent conversion of the zymosterol-d5 to dehydrolathosterol-d5 was used to derive IC50 curves. Tasin-1 (1′-[(4-Methoxyphenyl)sulfonyl]-4-methyl-1,4′-bipiperidine, CAS 792927-06-1) was used as the reference small molecule inhibitor.
Percent conversion versus the compound concentration data were fit to the following 4-parameter logistic model to generate IC50 curves: […]

T1 sequence (Q15125 whole entry): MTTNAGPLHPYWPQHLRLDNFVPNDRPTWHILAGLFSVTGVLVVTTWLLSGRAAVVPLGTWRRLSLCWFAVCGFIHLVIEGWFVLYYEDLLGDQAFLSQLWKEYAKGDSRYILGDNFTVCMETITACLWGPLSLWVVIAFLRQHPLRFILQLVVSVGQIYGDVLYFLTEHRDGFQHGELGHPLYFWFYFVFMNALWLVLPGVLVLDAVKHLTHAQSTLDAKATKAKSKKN

One may read the IC50 as the concentration at which inhibition is half-maximal. A lower IC50 goes with higher potency. With `Cc1nc(C(F)(F)F)nc(C)c1S(=O)(=O)N1C[C@H]2CN(CC3CCOCC3)C[C@@H]2C1` [Example 62, (3aR,6aR)-2-((4,6-dimethyl-2-(trifluoromethyl)pyrimidin-5-yl)sulfonyl)-5-((tetrahydro-2H-pyran-4-yl)methyl)octahydropyrrolo[3,4-c]pyrrole], the IC50 is under 100 nM. The result for `Cc1nc(C(F)(F)F)ccc1S(=O)(=O)N1C[C@@H]2CN(C3CCOCC3)C[C@H]2C1` (single isomer, unassigned) [Example 47] reads 100 to 500 nM; that for `Cc1nc(C(F)(F)F)nc(C)c1S(=O)(=O)N1C[C@H]2CN(C3CCOCC3)C[C@@H]2C1` [Example 60, (3aR,6aR)-2-((4,6-dimethyl-2-(trifluoromethyl)pyrimidin-5-yl)sulfonyl)-5-(tetrahydro-2H-pyran-4-yl)octahydropyrrolo[3,4-c]pyrrole], under 100 nM.

The compound `Cn1nc(C2CC2)cc1S(=O)(=O)N1C[C@H]2C[C@H](NCC3CCOCC3)C[C@H]2C1` [Example 12, (3aR,5s,6aS)-2-((3-Cyclopropyl-1-methyl-1H-pyrazol-5-yl)sulfonyl)-N-((tetrahydro-2H-pyran-4-yl)methyl)octahydrocyclopenta[c]pyrrol-5-amine] displayed a 50% inhibitory concentration (IC50) of 100 to 500 nM.

In turn, `Cc1nc(C(F)(F)F)ncc1S(=O)(=O)N1C[C@H]2CN(C3CC4(COC4)C3)C[C@@H]2C1` (racemic) [Example 58, Rac-(3aR,6aR)-2-((4-methyl-2-(trifluoromethyl)pyrimidin-5-yl)sulfonyl)-5-(2-oxaspiro[3.3]heptan-6-yl)octahydropyrrolo[3,4-c]pyrrole] had an IC50 of 100 to 500 nM. The result for `CN(CC1CCOCC1)[C@H]1C[C@@H]2CN(S(=O)(=O)c3ccc(OC(F)F)cc3)C[C@@H]2C1` [Example 17, (3aR,5s,6aS)-2-((4-(Difluoromethoxy)phenyl)sulfonyl)-N-methyl-N-((tetrahydro-2H-pyran-4-yl)methyl)octahydrocyclopenta[c]pyrrol-5-amine] reads 100 to 500 nM; that for `Cc1cc(C)c(S(=O)(=O)N2C[C@H]3C[C@H](NCC4CCOCC4)C[C@H]3C2)cn1` [Example 10, (3aR,5s,6aS)-2-((4,6-Dimethylpyridin-3-yl)sulfonyl)-N-((tetrahydro-2H-pyran-4-yl)methyl)octahydrocyclopenta[c]pyrrol-5-amine], over 500 nM; that for `Cc1nc(C(F)(F)F)ccc1S(=O)(=O)N1C[C@H]2CN(CC34COC(C)(C3)C4)C[C@@H]2C1` (racemic) [Example 54], 100 to 500 nM. To `Cn1nc(C2CC2)cc1S(=O)(=O)N1C[C@H]2C[C@H](NCC3(C)COC3)C[C@H]2C1` [Example 21, (3aR,5s,6aS)-2-((3-Cyclopropyl-1-methyl-1H-pyrazol-5-yl)sulfonyl)-N-((3-methyloxetan-3-yl)methyl)octahydrocyclopenta[c]pyrrol-5-amine] belongs under 100 nM. Consider `Cc1cc(C)c(S(=O)(=O)N2CC3CN(C4CCOCC4)CC3C2)c(C)c1` (stereo not drawn) [Example 32, 2-(Mesitylsulfonyl)-5-(tetrahydro-2H-pyran-4-yl)octahydropyrrolo[3,4-c]pyrrole], for which the IC50 is under 100 nM. The result for `O=S(=O)(c1ccc(OC(F)F)cc1)N1C[C@H]2C[C@H](NC3COC3)C[C@H]2C1` [Example 14, (3aR,5s,6aS)-2-((4-(Difluoromethoxy)phenyl)sulfonyl)-N-(oxetan-3-yl)octahydrocyclopenta[c]pyrrol-5-amine] reads over 500 nM; that for `Cc1nc(C(F)(F)F)ccc1S(=O)(=O)N1C[C@H]2C[C@H](NCC3CCOCC3)C[C@H]2C1` [Example 27, (3aR,5s,6aS)-2-((2-Methyl-6-(trifluoromethyl)pyridin-3-yl)sulfonyl)-N-((tetrahydro-2H-pyran-4-yl)methyl)octahydrocyclopenta[c]pyrrol-5-amine], under 100 nM; that for `Cc1nc(C(F)(F)F)ccc1S(=O)(=O)N1C[C@H]2C[C@H](NC3CC4(COC4)C3)C[C@H]2C1` [Example 30, (3aR,5s,6aS)-2-((2-Methyl-6-(trifluoromethyl)pyridin-3-yl)sulfonyl)-N-(2-oxaspiro[3.3]heptan-6-yl)octahydrocyclopenta[c]pyrrol-5-amine], 100 to 500 nM. The result for `CC1CCN([C@H]2C[C@@H]3CN(S(=O)(=O)c4ccc(OC(F)F)cc4)C[C@@H]3C2)CC1` [Example 4, (3aR,5s,6aS)-2-((4-(Difluoromethoxy)phenyl)sulfonyl)-5-(4-methylpiperidin-1-yl)octahydrocyclopenta[c]pyrrole] reads 100 to 500 nM; that for `Cc1nc(C(F)(F)F)ncc1S(=O)(=O)N1C[C@H]2CN(C3CCOCC3)C[C@@H]2C1` (racemic) [Example 57, Rac-(3aR,6aR)-2-((4-methyl-2-(trifluoromethyl)pyrimidin-5-yl)sulfonyl)-5-(tetrahydro-2H-pyran-4-yl)octahydropyrrolo[3,4-c]pyrrole], 100 to 500 nM; that for `Cn1nc(C2CC2)cc1S(=O)(=O)N1C[C@H]2C[C@H](NC3CC4(COC4)C3)C[C@H]2C1` [Example 20, (3aR,5s,6aS)-2-((3-Cyclopropyl-1-methyl-1H-pyrazol-5-yl)sulfonyl)-N-(2-oxaspiro[3.3]heptan-6-yl)octahydrocyclopenta[c]pyrrol-5-amine], 100 to 500 nM. Compound `Cc1ccc(S(=O)(=O)N2C[C@H]3C[C@H](N4CCC(C)CC4)C[C@H]3C2)c(C)c1` [Example 3, (3aR,5s,6aS)-2-((2,4-Dimethylphenyl)sulfonyl)-5-(4-methylpiperidin-1-yl)octahydrocyclopenta[c]pyrrole] displayed a half-maximal inhibitory concentration (IC50) of under 100 nM.

Compound `Cc1nc(C(F)(F)F)ccc1S(=O)(=O)N1C[C@@H]2CN(CC34COC(C)(C3)C4)C[C@H]2C1` (single isomer, unassigned) [Example 55] came in with a half-inhibitory concentration (IC50) of 100 to 500 nM. Compound `CC1CCN([C@@H]2C[C@@H]3CN(S(=O)(=O)c4ccc(OC(F)F)cc4)C[C@@H]3C2)CC1` [Example 6, (3aR,5r,6aS)-2-((4-(Difluoromethoxy)phenyl)sulfonyl)-5-(4-methylpiperidin-1-yl)octahydrocyclopenta[c]pyrrole] had an IC50 of 100 to 500 nM. To `COc1ccc(S(=O)(=O)N2C[C@H]3CN(C4CCOCC4)C[C@H]3C2)c(C)n1` [Example 34, (3aR,6aS)-2-((6-Methoxy-2-methylpyridin-3-yl)sulfonyl)-5-(tetrahydro-2H-pyran-4-yl)octahydropyrrolo[3,4-c]pyrrole] belongs under 100 nM; to `Cc1nc(C(F)(F)F)ccc1S(=O)(=O)N1C[C@H]2CN(C3CCOCC3)C[C@@H]2C1` [Example 45, (3aR,6aR)-2-((2-Methyl-6-(trifluoromethyl)pyridin-3-yl)sulfonyl)-5-(tetrahydro-2H-pyran-4-yl)octahydropyrrolo[3,4-c]pyrrole], 100 to 500 nM.

`Cc1nc(C(F)(F)F)ccc1S(=O)(=O)N1C[C@H]2CN(C3CCOCC3)C[C@H]2C1` [Example 35, (3aR,6aS)-2-((2-Methyl-6-(trifluoromethyl)pyridin-3-yl)sulfonyl)-5-(tetrahydro-2H-pyran-4-yl)octahydropyrrolo[3,4-c]pyrrole] returned an IC50 of under 100 nM. To `Cc1nc(C(F)(F)F)ncc1S(=O)(=O)N1C[C@H]2CN(CC3CCOCC3)C[C@@H]2C1` (racemic) [Example 59, Rac-(3aR,6aR)-2-((4-methyl-2-(trifluoromethyl)pyrimidin-5-yl)sulfonyl)-5-((tetrahydro-2H-pyran-4-yl)methyl)octahydropyrrolo[3,4-c]pyrrole] belongs 100 to 500 nM; to `O=S(=O)(c1ccc(OC(F)F)cc1)N1C[C@H]2C[C@H](NCC3CCOCC3)C[C@H]2C1` [Example 8, (3aR,5s,6aS)-2-((4-(Difluoromethoxy)phenyl)sulfonyl)-N-((tetrahydro-2H-pyran-4-yl)methyl)octahydrocyclopenta[c]pyrrol-5-amine], 100 to 500 nM; to `O=S(=O)(c1ccc(OC(F)F)cc1)N1C[C@H]2C[C@@H](NCC3CCOCC3)C[C@H]2C1` [Example 2, (3aR,5r,6aS)-2-((4-(Difluoromethoxy)phenyl)sulfonyl)-N-((tetrahydro-2H-pyran-4-yl)methyl)octahydrocyclopenta[c]pyrrol-5-amine], 100 to 500 nM. To `Cc1ccc(S(=O)(=O)N2C[C@H]3C[C@H](NCC4CCOCC4)C[C@H]3C2)c(C)c1` [Example 7, (3aR,5s,6aS)-2-((2,4-Dimethylphenyl)sulfonyl)-N-((tetrahydro-2H-pyran-4-yl)methyl)octahydrocyclopenta[c]pyrrol-5-amine] belongs under 100 nM; to `Cc1nc(C(F)(F)F)ccc1S(=O)(=O)N1C[C@H]2C[C@H](N(C)CC3CCOCC3)C[C@H]2C1` [Example 23, (3aR,5s,6aS)-N-Methyl-2-((2-methyl-6-(trifluoromethyl)pyridin-3-yl)sulfonyl)-N-((tetrahydro-2H-pyran-4-yl)methyl)octahydrocyclopenta[c]pyrrol-5-amine], under 100 nM.

Values taken from US20260014119A1, “EMOPAMIL-BINDING PROTEIN INHIBITORS AND USES THEREOF” (BIOGEN MA INC., priority 2022, published 2026).
